The values that follow come from BindingDB's records for doi:10.1021/bi00139a026 (University of California San Francisco, 1992).

A word on the IC50: it is the midpoint of a concentration-inhibition curve. The Ki is a measure of affinity in units of concentration, obtained from inhibition or displacement. A high value points to weaker binding.

The target in experiment [1] is T1, Amine oxidase [flavin-containing] B (Homo sapiens, UniProt P27338).
T1 sequence (P27338 whole entry): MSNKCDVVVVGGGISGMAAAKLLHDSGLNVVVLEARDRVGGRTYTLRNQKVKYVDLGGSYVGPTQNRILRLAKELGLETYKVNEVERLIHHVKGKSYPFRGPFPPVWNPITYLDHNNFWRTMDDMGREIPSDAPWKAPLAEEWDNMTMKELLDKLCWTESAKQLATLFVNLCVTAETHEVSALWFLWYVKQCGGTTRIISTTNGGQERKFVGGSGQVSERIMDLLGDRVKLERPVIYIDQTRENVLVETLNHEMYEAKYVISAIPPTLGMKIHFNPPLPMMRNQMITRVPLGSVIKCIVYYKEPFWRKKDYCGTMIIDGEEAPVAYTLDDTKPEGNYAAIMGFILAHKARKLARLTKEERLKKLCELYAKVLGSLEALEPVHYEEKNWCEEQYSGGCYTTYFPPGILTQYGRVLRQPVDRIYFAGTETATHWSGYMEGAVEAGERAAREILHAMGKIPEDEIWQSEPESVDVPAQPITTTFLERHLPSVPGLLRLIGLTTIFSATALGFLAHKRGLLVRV
Put plainly: Inhibiton Assay. The text has this:
(§1) Inhibition assay using MAO-A and MAO-B.

Experiment [2] concerns the target T2, Amine oxidase [flavin-containing] A (Homo sapiens, UniProt P21397).
T2 sequence (P21397 whole entry): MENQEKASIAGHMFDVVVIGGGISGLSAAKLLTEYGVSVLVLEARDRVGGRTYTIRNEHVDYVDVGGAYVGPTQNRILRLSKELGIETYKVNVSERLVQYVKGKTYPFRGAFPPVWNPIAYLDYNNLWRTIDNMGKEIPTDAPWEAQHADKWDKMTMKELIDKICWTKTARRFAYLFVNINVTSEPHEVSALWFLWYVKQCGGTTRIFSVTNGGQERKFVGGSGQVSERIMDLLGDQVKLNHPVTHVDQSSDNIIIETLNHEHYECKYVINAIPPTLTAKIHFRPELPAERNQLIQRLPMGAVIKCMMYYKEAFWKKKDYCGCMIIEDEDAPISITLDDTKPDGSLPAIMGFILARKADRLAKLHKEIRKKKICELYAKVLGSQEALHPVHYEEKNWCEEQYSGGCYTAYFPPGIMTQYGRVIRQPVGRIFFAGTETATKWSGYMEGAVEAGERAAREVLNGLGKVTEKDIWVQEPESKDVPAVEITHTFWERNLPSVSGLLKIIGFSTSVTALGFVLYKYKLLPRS
The experiment in a line: Inhibiton Assay.
From the text: as §1

Regarding `C[n+]1ccc(CCc2ccccc2)cc1` [MPP analogue, 17], inhibition in experiment [1] was half-maximal at 12 µM (IC50). For the same compound, the affinity in experiment [2] corresponds to a Ki of 37 µM.

As to `C[n+]1ccc(Cc2ccccc2F)cc1` [MPP analogue, 18], in experiment [1], the IC50 stood at 2000 µM. Besides, in experiment [2], the Ki stood at 29 µM.

As to `C[n+]1ccc(Cc2cccc3ccccc23)cc1` [MPP analogue, 19], the IC50 in experiment [1] came to 850 µM. The compound further came in with a Ki in experiment [2] of 5.5 µM.
